These results are taken from patent publication US20070117182A1, “Nucleic acids conferring transcriptional responsiveness on the RANKL gene promoter and uses thereof” (Wisconsin Alumni Research Foundation, priority 2005, published 2007).

The test system of one assay is minimal RANKL promoter. In words: Mouse RANKL minimal promoter (-100 to +65) in pGL3, ST2 cells. It counts as cell-based. The note with it: pGL3, without D5 insert. An excerpt: FIG. 9. The mouse RANKL D5 region is active in the context of the mouse RANKL gene minimal promoter. Mouse RL D5 was inserted upstream of a mouse RANKL gene promoter fragment (−100 to +65) in pGL3 and its inducible activity assessed in ST2 cells. […] Data are the average of triplicate determinations, SEM.
The activity of an enhancer must be evaluated in the context of its local environment, preferentially in the context of both other enhancers and its native promoter. In the case of the RANKL gene, however, this is clearly not possible due to the numbers and the distant locations of the potential regulatory regions. To tackle this problem, the inventors isolated approximately 800 to 1100 bp fragments of each region (D1 to D5) as identified through the ChIP/Chip analysis, cloned each into a luciferase expression vector under the control of a viral thymidine kinase (TK) minimal promoter, and explored the 1,25(OH)2D3- and GC-inducible activity of each following transfection into ST2 cells. […] Nevertheless, positive results provide added support for the potential regulatory capabilities of an individual DNA fragment even when examined in isolation. […] To ensure that the viral TK promoter background was not contributing to our evaluation, the inventors cloned the mouse RANKL promoter (−100 to +65) into pGL3, inserted RL D5 and evaluated its activity in ST2 cells as well.

The test system of the next assay is Cyp24 promoter. In words: ChIP of VDR/RXR at Cyp24 promoter in ST2 cells. It counts as cell-based, mouse. The note with it: 10^-7 M, 6 hours. As for the experimental part: (§1) FIG. 3. ChIP/chip analysis of the RANKL gene locus. A) ChIP: ST2 cells were treated with either vehicle or 1,25(OH)2D3 (10^−7 M) and after 6 hours subjected to ChIP using antibodies to VDR, RXR and IgG. Precipitated DNA was analyzed for the presence of either the Cyp24 or the OPN promoter. B) Arrangement of the mouse RANKL gene locus and position of flanking genes. RANKL gene is transcribed on the reverse strand (right to left). C) DNA chip: Precipitated DNA was linearly amplified and then subjected to chip analysis using tiled oligonucleotide arrays containing 50-mers spanning the RANKL gene locus as described in the text. Hybridization data derived from the arrays are indicated in log2 scale across the locus with nucleotide positions on chromosome 14 indicated on the X axis. The first set of two arrays provide linear data comparing IgG (±1,25(OH)2D3) and VDR (±1,25(OH)2D3) over the RANKL upstream regions. The second set of three arrays provides an expanded view of hybridization data comparing VDR (±1,25(OH)2D3), VDR (+1,25(OH)2D3 vs input DNA) and RXR (+1,25(OH)2D3 vs input DNA). VDR/RXR binding regions D1-D5 are tracked by the shading.
(§2) As a first step, the inventors treated ST2 cells with either vehicle or 1,25(OH)2D3 for 6 hours, fixed the cells with formalin, and then subjected the cell lysates to ChIP analysis using antibodies to VDR, RXR, and an IgG control. […]

In assay [1] the test system is mouse D5 region (TK-mRLD5). In words: TK-mRLD5 luciferase reporter in MG-63 cells. It counts as cell-based. The note with it: 24 hours. For orientation: In a reporter assay the amount or activity of a reporter protein is the signal.
Assay [2] deals with D1-D4 regions of the RANKL gene. In words: pTK-RL(D1)-(D4) luciferase reporters in ST2 cells. It counts as cell-based, mouse. The method, then: FIG. 12. Transcriptional activities of the D1-D4 regions of the RANKL gene in the context of the TK promoter were analyzed and corresponding data is shown in FIG. 12. The D1-D4 regions of the RANKL gene were cloned into the pTK vector and termed PTK-RL(D1)-(D4). […] Cells were harvested after 24 hours and luciferase activity assessed. Luciferase was normalized using beta-gal activity. Data in FIG. 12 represent the mean of triplicate determinations (SEM).
The activity of an enhancer must be evaluated in the context of its local environment, preferentially in the context of both other enhancers and its native promoter. In the case of the RANKL gene, however, this is clearly not possible due to the numbers and the distant locations of the potential regulatory regions. […] To ensure that the viral TK promoter background was not contributing to our evaluation, the inventors cloned the mouse RANKL promoter (−100 to +65) into pGL3, inserted RL D5 and evaluated its activity in ST2 cells as well.
Transcriptional activities of the D1-D4 regions of the RANKL gene in the context of the TK promoter were analyzed and corresponding data is shown in FIG. 12. […] Cells were harvested after 24 hours and luciferase activity assessed. […]

Assay [3] relates to human D5 region (TK-hRLD5). In words: TK-hRLD5 luciferase reporter in MG-63 cells. It counts as cell-based. Particulars: 24 hours. As for the experimental part:
(§3) FIG. 14. […] Cells were treated with the indicated inducers for the periods identified and isolated RNA subjected to PCR analysis for Cyp24, RANKL and b-actin. […] Two different primer sets to the human D5 region were used to assess VDR binding. […] Luciferase activity was analysed 24 hours later. […] Data are the average of triplicate determinations, SEM.
Approximately 1000 bp of the human RANKL gene comprising D5 was cloned and inserted into a TK-luciferase expression vector (TK-hRLD5). […] The D5 RL region and an additional region immediately upstream in both the mouse and human genes contain elements that mediate the actions of parathyroid hormone, a variety of prostaglandins, cytokines such as oncostatin M and IL-6, as well as IL-1 and others.

A further assay concerns OPN promoter. In words: ChIP of VDR/RXR at OPN promoter in ST2 cells. The note with it: 10^-7 M, 6 hours. It counts as cell-based, mouse. The method, then:
as §1, §2

Assay [4] relates to D5 region of the human RANKL gene. In words: ChIP analysis of the D5 region of the human RANKL gene in MG-63 cells. It counts as cell-based. The method, then:
as §3, with “b-actin. B) 1,25(OH)2D3 induces VDR binding to the conserved D5 region of the human RANKL gene in MG-63 cells.” for “b-actin.”, “binding. VDR binding was also observed at D3-D1 but not in intervening regions or at the TSS. C) The human D5 region is transcriptionally active in MG-63 cells.” for “binding.”
Input represents DNA abundance prior to precipitation with either antibodies to the VDR or non specific IgG.

As to `C=C1/C(=C\C=C2/CCC[C@]3(C)[C@@H]([C@H](C)CCCC(C)(C)O)CC[C@@H]23)C[C@@H](O)C[C@@H]1O` [1,25(OH)2D3], the “response of minimal RANKL promoter” value in the assay on minimal RANKL promoter was “unresponsive”. Further, the “abundance of Cyp24 promoter DNA precipitated with VDR and RXR antibodies” value in the assay with Cyp24 promoter was “clearly increased the abundance of DNA”. The “activity of mouse D5 region” value in assay [1] is “induces”. Also, the “luciferase activity of regions D1 through D4” value in assay [2] (increasing concentrations, no added VDR) is “failed to show increased activity”. The “response from D2 and D3” value in assay [2] (with exogenous VDR expression vector) is listed as “modest response”. Moreover, the “activity of human D5 region” value in assay [3] is given as “induces”. Further, the “abundance of OPN promoter DNA precipitated with VDR and RXR antibodies” value in the assay with OPN promoter is “clearly increased the abundance of DNA”. In assay [4], the “RXR binding to the D5 region of the human RANKL gene” value was “also induced to bind” and the “VDR binding to the D5 region of the human RANKL gene” value is given as “induced”.
